Reference: ChEMBL document CHEMBL6103573, “Discovery of novel thienopyridine indole derivatives as inhibitors of tubulin polymerization targeting the colchicine-binding site with potent anticancer activities” (Eur J Med Chem, 2025)

How the values were obtained:
KYSE-450 = experiment: Antiproliferative activity against human KYSE-450 cells assessed as inhibition of cell proliferation incubated for 48 hrs by MTT assay; assay type: functional, cell-based; conditions: KYSE-450, 48 h
MGC-803 [1] = experiment: Antiproliferative activity against human MGC-803 cells assessed as inhibition of cell proliferation incubated for 48 hrs by MTT assay; assay type: functional, cell-based; conditions: MGC-803, 48 h
HCT-116 = experiment: Antiproliferative activity against human HCT-116 cells assessed as inhibition of cell proliferation incubated for 48 hrs by MTT assay; assay type: functional, cell-based; conditions: HCT-116, 48 h
Tubulin (Homo sapiens) = Tubulin (Homo sapiens) (UniProt P68371+Q9H4B7+P0DPH7+P68366+Q13509+Q71U36+P04350+Q3ZCM7+P07437+P68363+Q9BQE3+Q6PEY2+Q13885+Q9BVA1+Q9BUF5); experiment: Inhibition of tubulin (unknown origin) polymerization assessed as decrease in fluorescence intensity at 3 micromol/L in the presence of GTP by fluorescence microplate reader; assay type: protein-complex assay; conditions: dose 3.0 µmol/L
MGC-803 [2] = experiment: Antitumor activity against human MGC-803 cells xenografted in female BALB/c-nu nude mouse assessed as tumor inhibition rate at 20 mg/kg, ip administrated every other day for 11 times and measured after 21 days relative to control; assay type: functional; conditions: MGC-803, 504 h, time 21 day, read-out: TGI

Row | SMILES | IC50 (MGC-803 [1]) | IC50 (HCT-116) | IC50 (KYSE-450) | inhibition (Tubulin (Homo sapiens)) | inhibition in vivo at 20 mg/kg (MGC-803 [2])
1 | Cn1ccc2cc(Nc3ncnc4ccsc34)ccc21 | > 5000 nM | > 5000 nM | > 5000 nM | – | –
2 | Cn1ccc2cc(Nc3ncnc4sccc34)ccc21 | > 5000 nM | > 5000 nM | > 5000 nM | – | –
3 | CCCN(c1ccc2c(ccn2C)c1)c1nc(Cl)nc2sccc12 | 89.2 nM | 125 nM | 122 nM | – | –
4 | CN(c1ccc2c(ccn2C)c1)c1ncnc2sccc12 | 5.32 nM | 5.12 nM | 25.1 nM | – | –
5 | CN(c1ccc2[nH]ccc2c1)c1nc(Cl)nc2sccc12 | 4.23 nM | 7.28 nM | 5.12 nM | – | –
6 | CC(=O)O[C@H]1C(=O)[C@@]2(C)[C@H]([C@H](OC(=O)c3ccccc3)[C@]3(O)C[C@H](OC(=O)[C@H](O)[C@@H](NC(=O)c4ccccc4)c4ccccc4)C(C)=C1C3(C)C)[C@]1(OC(C)=O)CO[C@@H]1C[C@@H]2O | – | – | – | Not active; Increase In Fluorescence Intensity Observed | –
7 | CN(c1ccc2c(ccn2C)c1)c1nc(N2CCN(C(=O)OC(C)(C)C)CC2)nc2sccc12 | 589 nM | 682 nM | 597 nM | – | –
8 | Cn1ccc2cc(Nc3nc(Cl)nc4ccsc34)ccc21 | > 5000 nM | > 5000 nM | > 5000 nM | – | –
9 | CN(c1ccc2c(ccn2C(=O)OC(C)(C)C)c1)c1nc(Cl)nc2sccc12 | 253 nM | 282 nM | 152 nM | – | –
10 | COc1ccc(/C=C\c2cc(OC)c(OC)c(OC)c2)cc1O [COMBRETASTATIN A4] | 6.29 nM | 7.38 nM | 5.11 nM | – | 27.1%
11 | CCN(c1ccc2c(ccn2C)c1)c1nc(Cl)nc2sccc12 | 3.67 nM | 8.28 nM | 7.77 nM | – | –
12 | Cn1ccc2cc(Nc3nc(Cl)nc4sccc34)ccc21 | > 5000 nM | > 5000 nM | > 5000 nM | – | –
13 | CN(c1ccc2c(ccn2C)c1)c1nc(Cl)nc2ccsc12 | 4.18 nM | 3.17 nM | 16.1 nM | – | –
14 | CN(c1ccc2c(ccn2Cc2ccccc2)c1)c1nc(Cl)nc2sccc12 | 893 nM | 831 nM | 921 nM | – | –
15 | CN(c1ccc2c(ccn2C)c1)c1ncnc2ccsc12 | 8.94 nM | 17.6 nM | 34.6 nM | – | –
16 | COc1cc2c(c(OC)c1OC)-c1ccc(OC)c(=O)cc1[C@@H](NC(C)=O)CC2 [COLCHICINE] | 44.1 nM | 49.1 nM | 58.7 nM | – | –
17 | CC(C)(C)OC(=O)n1ccc2cc(Nc3nc(Cl)nc4sccc34)ccc21 | > 5000 nM | > 5000 nM | > 5000 nM | – | –
18 | CN(c1ccc2c(ccn2C)c1)c1nc(N2CCC(C(=O)OC(C)(C)C)CC2)nc2sccc12 | 337 nM | 388 nM | 422 nM | – | –
19 | CCn1ccc2cc(N(C)c3nc(Cl)nc4sccc34)ccc21 | 40.2 nM | 54.2 nM | 39.8 nM | – | –

Second part, led by results:

Row | IC50 (MGC-803 [1]) | IC50 (HCT-116) | SMILES | IC50 (KYSE-450) | inhibition (Tubulin (Homo sapiens)) | inhibition in vivo at 20 mg/kg (MGC-803 [2])
20 | 288 nM | 406 nM | CCN1CCN(c2nc(N(C)c3ccc4c(ccn4C)c3)c3ccsc3n2)CC1 | 402 nM | – | –
21 | 2.07 nM | 2.79 nM | CN(c1ccc2c(ccn2C)c1)c1nc(Cl)nc2sccc12 | 3.28 nM | – | –
22 | 219 nM | 441 nM | CN1CCN(c2nc(N(C)c3ccc4c(ccn4C)c3)c3ccsc3n2)CC1 | 389 nM | – | –
23 | 14.8 nM | 18.2 nM | CN(c1ccc2c(ccn2C)c1)c1nc(N2CCCCC2)nc2sccc12 | 13.2 nM | – | –
24 | 12.9 nM | 17.7 nM | CN(c1ccc2c(ccn2C)c1)c1nc(N2CCC(F)CC2)nc2sccc12 | 20.7 nM | – | –
25 | 308 nM | 487 nM | CC(=O)N1CCN(c2nc(N(C)c3ccc4c(ccn4C)c3)c3ccsc3n2)CC1 | 413 nM | – | –
26 | 18.3 nM | 29.3 nM | CN(c1ccc2c(ccn2C)c1)c1nc(N2CCC(Cl)CC2)nc2sccc12 | 25.6 nM | – | –
27 | 70.7 nM | 60.2 nM | CN(c1ccc2c(ccn2C)c1)c1nc(N2CCOCC2)nc2sccc12 | 56.4 nM | – | –
28 | 113 nM | 129 nM | CN(c1ccc2c(ccn2C)c1)c1nc(N2CCSCC2)nc2sccc12 | 289 nM | – | –
29 | 6.81 nM | 6.77 nM | COC1CCN(c2nc(N(C)c3ccc4c(ccn4C)c3)c3ccsc3n2)CC1 | 8.33 nM | – | –
30 | 8.12 nM | 6.21 nM | CC1CCN(c2nc(N(C)c3ccc4c(ccn4C)c3)c3ccsc3n2)CC1 | 9.17 nM | – | –
31 | 12.3 nM | 18.2 nM | CN(c1ccc2c(ccn2C)c1)c1nc(N2CCC2)nc2sccc12 | 16.1 nM | – | –
32 | 20.6 nM | 19.6 nM | CN(c1ccc2c(ccn2C)c1)c1nc(N2CCC(O)CC2)nc2sccc12 | 30.1 nM | – | –
